The structures appear in SMILES notation.

The target of one test is recombinant Mcl-1 (residues 172-327) (Homo sapiens (Human), UniProt Q07820). The experiment in a line: Bak peptide fluorescence polarization anisotropy competition assay, Mcl-1. The test is classed as binding.
Chain of recombinant Mcl-1 (residues 172-327) (Q07820 172-327): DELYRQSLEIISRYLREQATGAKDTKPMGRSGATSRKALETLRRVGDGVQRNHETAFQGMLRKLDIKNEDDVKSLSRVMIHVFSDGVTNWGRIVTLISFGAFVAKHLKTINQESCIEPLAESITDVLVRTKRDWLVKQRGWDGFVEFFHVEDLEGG
Details: not given
(Polarisation of emitted light reports the rotation of a fluorescent probe.)
`Cc1cccc(S(=O)(=O)NC(=O)c2c(CCCOc3cc(C)c(Cl)c(C)c3)c3ccc(Cl)cc3n2Cc2cccnc2)c1` [Example 273, 6-chloro-3-(3-(4-chloro-3,5-dimethylphenoxy)propyl)-1-(pyridin-3-ylmethyl)-N-(m-tolylsulfonyl)-1H-indole-2-carboxamide]: the Ki (as a rule, the dissociation constant of the complex between target and ligand, obtained from inhibition or displacement) is 101 to 299 nM.

The same test, now with this note: Table 2, Ki range; FITC-Bak peptide 10 nM, Mcl-1 14 nM; read-out: Ki for inhibition of Mcl-1.
As for `Cc1cc(OCCCc2c(C(=O)NS(=O)(=O)c3ccccc3)[nH]c3c(-c4cnn(C)c4)cccc23)cc(C)c1Cl` [Example 123, 3-(3-(4-chloro-3,5-dimethylphenoxy)propyl)-7-(1-methyl-1H-pyrazol-4-yl)-N-(phenylsulfonyl)-1H-indole-2-carboxamide], the inhibition constant Ki was ≤ 100 nM.

Still in this test, the particulars now being: read-out: Ki for inhibition of Mcl-1.
With `Cc1cc(OCCCc2c(C(=O)NS(=O)(=O)CCNC(=O)c3cccn3Cc3ccccc3)n(Cc3ccccc3)c3cc(Cl)ccc23)cc(C)c1Cl` [Example 278, 1-benzyl-N-((2-(1-benzyl-1H-pyrrole-2-carboxamido)ethyl)sulfonyl)-6-chloro-3-(3-(4-chloro-3,5-dimethylphenoxy)propyl)-1H-indole-2-carboxamide], the Ki was in the range of 101 to 299 nM.
The same measure, in the same setting: in the case of `Cc1cc(OCCCc2c(C(=O)NS(=O)(=O)CCNC(=O)c3cccn3Cc3cccc(F)c3)[nH]c3cc(Cl)ccc23)cc(C)c1Cl` [Example 246, 6-chloro-3-(3-(4-chloro-3,5-dimethylphenoxy)propyl)-N-((2-(1-(3-fluorobenzyl)-1H-pyrrole-2-carboxamido)ethyl)sulfonyl)-1H-indole-2-carboxamide] it was 101 to 299 nM.
On the same count and under the same terms, in the case of `Cc1cc(OCCCc2c(C(=O)NS(=O)(=O)Cc3ccccc3)sc3ccccc23)cc(C)c1Cl` [Example 70, N-(benzylsulfonyl)-3-(3-(4-chloro-3,5-dimethylphenoxy)propyl)benzo[b]thiophene-2-carboxamide] it was 501 to 999 nM.
Consider `Cc1cc(C(=O)NCCS(=O)(=O)NC(=O)c2[nH]c3ccccc3c2CCCOc2cc(C)c(Cl)c(C)c2)c(C)o1` [Example 159, 3-(3-(4-chloro-3,5-dimethylphenoxy)propyl)-N-((2-(2,5-dimethylfuran-3-carboxamido)ethyl)sulfonyl)-1H-indole-2-carboxamide], for which the Ki lay in the range of 101 to 299 nM.
The same measure, in the same setting: the result for `Cc1cc(OCCCc2c(C(=O)NS(=O)(=O)CC3CCN(C(=O)OCc4ccccc4)CC3)[nH]c3cc(Cl)ccc23)cc(C)c1Cl` [Example 209, benzyl 4-((N-(6-chloro-3-(3-(4-chloro-3,5-dimethylphenoxy)propyl)-1H-indole-2-carbonyl)sulfamoyl)methyl)piperidine-1-carboxylate] reads 301 to 500 nM; that for `Cc1cc(OCCCc2c(C(=O)NS(=O)(=O)c3ccnc(Cl)c3)[nH]c3ccccc23)cc(C)c1Cl` [Example 135, 3-(3-(4-chloro-3,5-dimethylphenoxy)propyl)-N-((2-chloropyridin-4-yl)sulfonyl)-1H-indole-2-carboxamide], 301 to 500 nM.
Still for that read-out and setting: the result for `CS(=O)(=O)NC(=O)c1[nH]c2cccc(Br)c2c1CCCOc1cccc2ccccc12` [Example 115, 4-bromo-N-(methylsulfonyl)-3-(3-(naphthalen-1-yloxy)propyl)-1H-indole-2-carboxamide] reads 501 to 999 nM; that for `Cc1cc(OCCCc2c(C(=O)NS(=O)(=O)CCNC(=O)NC3CCCCC3)[nH]c3ccccc23)cc(C)c1Cl` [Example 199, 3-(3-(4-chloro-3,5-dimethylphenoxy)propyl)-N-((2-(3-cyclohexylureido)ethyl)sulfonyl)-1H-indole-2-carboxamide], 301 to 500 nM; that for `Cc1cc(OCCCc2c(C(=O)NS(=O)(=O)CCCNC(=O)c3cccn3Cc3ccccc3)[nH]c3cc(Cl)ccc23)cc(C)c1Cl` [Example 258, N-((3-(1-benzyl-1H-pyrrole-2-carboxamido)propyl)sulfonyl)-6-chloro-3-(3-(4-chloro-3,5-dimethylphenoxy)propyl)-1H-indole-2-carboxamide], 101 to 299 nM.
The same measure, in the same setting: the result for `Cc1cc(OCCCc2c(C(=O)NS(=O)(=O)CCNC(=O)c3ccccc3)[nH]c3ccccc23)cc(C)c1Cl` [Example 161, N-((2-benzamidoethyl)sulfonyl)-3-(3-(4-chloro-3,5-dimethylphenoxy)propyl)-1H-indole-2-carboxamide] reads 301 to 500 nM; that for `Cc1cc(OCCCc2c(C(=O)NS(=O)(=O)c3ccc(OCc4ccccc4)cc3)[nH]c3cc(Cl)ccc23)cc(C)c1Cl` [Example 224, N-((4-(benzyloxy)phenyl)sulfonyl)-6-chloro-3-(3-(4-chloro-3,5-dimethylphenoxy)propyl)-1H-indole-2-carboxamide], 301 to 500 nM; that for `Cc1cc(OCCCc2c(C(=O)NS(=O)(=O)CCNC(=O)c3cncs3)[nH]c3ccccc23)cc(C)c1Cl` [Example 189, N-(2-(N-(3-(3-(4-chloro-3,5-dimethylphenoxy)propyl)-1H-indole-2-carbonyl)sulfamoyl)ethyl)thiazole-5-carboxamide], 501 to 999 nM.
For the compound `Cc1cc(OCCCc2c(C(=O)NS(=O)(=O)c3cccc4ccccc34)oc3ccccc23)cc(C)c1Cl` [Example 28, 3-(3-(4-chloro-3,5-dimethylphenoxy)propyl)-N-(naphthalen-1-ylsulfonyl)benzofuran-2-carboxamide], the inhibition constant (Ki) was in the range of 1000 to 9990 nM.
Regarding `Cc1ccc(C(=O)NCCS(=O)(=O)NC(=O)c2[nH]c3ccccc3c2CCCOc2cc(C)c(Cl)c(C)c2)o1` [Example 157, 3-(3-(4-chloro-3,5-dimethylphenoxy)propyl)-N-((2-(5-methylfuran-2-carboxamido)ethyl)sulfonyl)-1H-indole-2-carboxamide], the Ki was in the range of 101 to 299 nM.
Same read-out and setting: the result for `Cc1cc(OCCCc2c(C(=O)NS(=O)(=O)c3cccc(Br)c3)[nH]c3cc(Cl)ccc23)cc(C)c1Cl` [Example 218, N-((3-bromophenyl)sulfonyl)-6-chloro-3-(3-(4-chloro-3,5-dimethylphenoxy)propyl)-1H-indole-2-carboxamide] reads 101 to 299 nM; that for `CCOc1ccc(Oc2ccc(S(=O)(=O)NC(=O)c3[nH]c4ccccc4c3CCCOc3cc(C)c(Cl)c(C)c3)cc2)cc1` [Example 143, 3-(3-(4-chloro-3,5-dimethylphenoxy)propyl)-N-((4-(4-ethoxyphenoxy)phenyl)sulfonyl)-1H-indole-2-carboxamide], 301 to 500 nM.
Still for that read-out and setting: the result for `Cc1cc(OCCCc2c(C(=O)NS(=O)(=O)CCNC(=O)c3ccc4c(ccn4C)c3)[nH]c3cc(Cl)ccc23)cc(C)c1Cl` [Example 236, 6-chloro-3-(3-(4-chloro-3,5-dimethylphenoxy)propyl)-N-((2-(1-methyl-1H-indole-5-carboxamido)ethyl)sulfonyl)-1H-indole-2-carboxamide] reads 101 to 299 nM; that for `CS(=O)(=O)NC(=O)c1[nH]c2cc(Br)ccc2c1CCCOc1cccc2ccccc12` [Example 114, 6-bromo-N-(methylsulfonyl)-3-(3-(naphthalen-1-yloxy)propyl)-1H-indole-2-carboxamide], 301 to 500 nM.
Same read-out and setting: in the case of `COc1ccc(Oc2cccc(S(=O)(=O)NC(=O)c3[nH]c4cc(Cl)ccc4c3CCCOc3cc(C)c(Cl)c(C)c3)c2)cc1` [Example 220, 6-chloro-3-(3-(4-chloro-3,5-dimethylphenoxy)propyl)-N-((3-(4-methoxyphenoxy)phenyl)sulfonyl)-1H-indole-2-carboxamide] it was 101 to 299 nM.
With `O=C(O)c1sc2ccccc2c1CCCc1cccc2ccccc12` [Example 63, 3-(3-(naphthalen-1-yl)propyl)benzo[b]thiophene-2-carboxylic acid], the Ki is 1000 to 9990 nM.
Still for that read-out and setting: the result for `Cc1cc(OCCCc2c(C(=O)NS(=O)(=O)CCNC(=O)c3ccc(Oc4ccccc4)cc3)[nH]c3ccccc23)cc(C)c1Cl` [Example 166, 3-(3-(4-chloro-3,5-dimethylphenoxy)propyl)-N-((2-(4-phenoxybenzamido)ethyl)sulfonyl)-1H-indole-2-carboxamide] reads 301 to 500 nM.
Same read-out and setting: in the case of `Cc1cc(OCCCc2c(C(=O)NS(=O)(=O)CCNC(=O)CC3CCCCC3)[nH]c3ccccc23)cc(C)c1Cl` [Example 152, 3-(3-(4-chloro-3,5-dimethylphenoxy)propyl)-N-((2-(2-cyclohexylacetamido)ethyl)sulfonyl)-1H-indole-2-carboxamide] it was 1000 to 9990 nM.
`O=C(O)c1sc2c(-c3ccccc3)cccc2c1CCCOc1cccc2ccccc12` [Example 11, 3-(3-(naphthalen-1-yloxy)propyl)-7-phenylbenzo[b]thiophene-2-carboxylic acid]: the Ki was 501 to 999 nM.
The same measure, in the same setting: the result for `Cc1cc(OCCCc2c(C(=O)NS(=O)(=O)CCCN3C(=O)c4ccccc4C3=O)[nH]c3cc(Cl)ccc23)cc(C)c1Cl` [Example 256, 6-chloro-3-(3-(4-chloro-3,5-dimethylphenoxy)propyl)-N-((3-(1,3-dioxoisoindolin-2-yl)propyl)sulfonyl)-1H-indole-2-carboxamide] reads 501 to 999 nM.
Same read-out and setting: in the case of `CCOc1ccc(Oc2ccc(S(=O)(=O)NC(=O)c3[nH]c4cc(Cl)ccc4c3CCCOc3cc(C)c(Cl)c(C)c3)cc2)cc1` [Example 223, 6-chloro-3-(3-(4-chloro-3,5-dimethylphenoxy)propyl)-N-((4-(4-ethoxyphenoxy)phenyl)sulfonyl)-1H-indole-2-carboxamide] it was 301 to 500 nM.
On the same count and under the same terms, the result for `Cc1cc(OCCCc2c(C(=O)NS(C)(=O)=O)n(Cc3cccnc3)c3cc(Cl)ccc23)cc(C)c1Cl` [Example 271, 6-chloro-3-(3-(4-chloro-3,5-dimethylphenoxy)propyl)-N-(methylsulfonyl)-1-(pyridin-3-ylmethyl)-1H-indole-2-carboxamide] reads 301 to 500 nM.
Regarding `CS(=O)(=O)NC(=O)c1[nH]c2cc(Cl)ccc2c1CCCOc1cccc2ccccc12` [Example 52, 6-chloro-N-(methylsulfonyl)-3-(3-(naphthalen-1-yloxy)propyl)-1H-indole-2-carboxamide], the Ki was 101 to 299 nM.
The same measure, in the same setting: the result for `Cc1cc(OCCCc2c(C(=O)NS(=O)(=O)c3ccc(-c4ccccc4)cc3)[nH]c3ccccc23)cc(C)c1Cl` [Example 139, N-([1,1′-biphenyl]-4-ylsulfonyl)-3-(3-(4-chloro-3,5-dimethylphenoxy)propyl)-1H-indole-2-carboxamide] reads 301 to 500 nM; that for `O=C(O)c1sc2c(NCc3ccccc3)cccc2c1CCCOc1cccc2ccccc12` [Example 73, 7-(benzylamino)-3-(3-(naphthalen-1-yloxy)propyl)benzo[b]thiophene-2-carboxylic acid], 1000 to 9990 nM.

The record behind these values is patent US10844032B2, “Substituted benzofuran, benzothiophene and indole Mcl-1 inhibitors” (Vanderbilt University, priority 2012, dated 2020).
